In PMC4718592, “Identification of Novel HLA-A*24:02-Restricted Epitope Derived from a Homeobox Protein Expressed in Hematological Malignancies” (PLoS ONE, 2016):

Legend:
[1] = test system: HL60 and PL21 cells; test: PEPP2 expression after demethylating agent, leukemia cell lines (RT-PCR, quantitative PCR, immunohistochemistry); type: cell-based
[2] = test system: PBMNCs from HD; test: PEPP2 expression after demethylating agent, healthy donor PBMNCs; type: cell-based, human; conditions: PBMCs from healthy donor, 200 nM for 72 hours
[3] = test system: PL21 cells; test: 51Cr release cytotoxicity of PEPP2-specific CTLs against drug-pretreated PL21 cells; conditions: PL21 pretreated for 72 hours
Description: (§1) PL21 and HL60 cells and PBMNCs from HD were cultured in AIM-V medium (Life Technologies) supplemented with 10% human serum (Lonza, Walkersville, MD) in 6-well culture plates and 200 nM of 5-aza-2′-deoxycytidine (Sigma-Aldrich) was added every 24 hours for 72 hours.
(§2) The cytotoxic activity of the CTLs was measured using a standard ^51Cr release assay. Target cells were labeled with 50 μCi of ^51Cr (PerkinElmer Inc., Waltham, MA) for 60 min at 37°C. CIR-A24 cells were then incubated with 5 μg/mL of peptide for 1 hour. For the blocking assay, KMS21 cells were treated with mouse anti-HLA class I antibody (w6/32; eBioscience, San Diego, CA) or mouse IgG isotype antibody (eBioscience). The target cells were mixed with effector cells. After 4 hours, supernatants were transferred to LumaPlates (PerkinElmer) and allowed to air dry in a hood overnight. Plates were sealed and counted in MicroBeta® Trilux instrument (PerkinElmer). Percent specific lysis for ^51Cr release was calculated as [(experimental ^51Cr release—spontaneous ^51Cr release) / (maximum ^51Cr release—spontaneous ^51Cr release)] x 100.

[4] = test system: PBMNCs from HLA-A*24:02-positive healthy donor; conditions: PBMNCs pretreated for 72 hours, 51Cr release
Description: as §1, §2

[5] = test system: PL21 cells; conditions: flow cytometry
[6] = test system: leukemia cells; test: Viability of leukemia cells after drug treatment; conditions: data not shown
[7] = test system: HLA-A24; test: Peptide binding assay on CIR-A24 cells; conditions: 50 μg/mL peptide + 5 μg/mL β2-microglobulin, serum-free media, 24 hours, FITC anti-HLA-A24 staining, MFI with peptide / MFI without peptide, average of the two assays
Description: (§3) We assessed the binding ability of candidate peptides to HLA-A24 as described previously. CIR-A24 cells were incubated with 50 μg/mL peptides and 5μg/ mL of β2-microglobulin in serum-free media for 24 hours. After washing with PBS, the expression of HLA-A24 was measured by staining the cells with FITC-conjugated anti-HLA-A24 antibody (Mitsubishi-Kagaku, Tokyo, Japan). We also checked the stability of candidate peptides bound to the HLA-A24 molecule. CIR-A24 cells were incubated with 50 μg/mL peptides and 5 μg/mL of β2-microglobulin in serum-free media for 24 hours, followed by addition of 50 μg/ mL of brefeldin A (Sigma-Aldrich) for 4 hours. The expression of HLA-A24 was detected by staining the cells with FITC-conjugated anti-HLA-A24 antibody (Mitsubishi). MFI (mean fluorescence intensity) ratio was calculated as follows; MFI of CIR-A24 pulsed with each candidate peptide / MFI of CIR-A24 without peptide.

[8] = test system: HLA-A24; test: Peptide stability assay on CIR-A24 cells (brefeldin A); type: binding; conditions: 50 μg/mL peptide + 5 μg/mL β2-microglobulin, 24 hours, then 50 μg/mL brefeldin A for 4 hours, FITC anti-HLA-A24 staining, MFI with peptide / MFI without peptide, average of the two assays
Description: as §3

[9] = test system: HLA-A*24:02 positive lymphocytes isolated from healthy donors; test: Induction of PEPP2 peptide-specific CTLs from PBMCs of healthy donors; type: cell-based, human; conditions: HLA-A*24:02 positive healthy donor lymphocytes stimulated with peptide-pulsed DC and PHA blasts; IFN-γ ELISpot
Description: CTLs were generated by in vitro stimulation with peptide-pulsed autologous dendritic cells and phytohemagglutinin (PHA) blasts. Briefly, PBMNCs were isolated from whole blood of HLA-A*24:02-positive HD by Ficoll density gradient centrifugation. Dendritic cells (DC) were generated by isolating CD14^+ cells using a MACS separation system (Miltenyi Biotec, Bergisch Gladbach, Germany). The CD14^+ cells were cultured in AIM-V medium supplemented with 10% human serum, 100 ng/mL of IL-4 (R&D Systems) and 100 ng/mL of GM-CSF (R&D Systems) for 5 days, then 20 ng/mL of TNF-α (R&D Systems) was added to generate DC. PHA blasts were derived from CD14^- cells by culturing in AIM-V medium supplemented with 10% human serum, 100 units of IL-2 and 1μ g/mL of PHA for 2 days. The DC or PHA blasts were pulsed with 50μg/L of peptide at room temperature for 3 hours and then irradiated (mediXtec, Chiba, Japan). On day 0, CD14^- cells were stimulated with irradiated peptide-pulsed DC in AIM-V medium with 10% human serum supplemented with 10 ng/mL of IL-7 (R&D Systems), then 50 ng/mL of IL-2 was added every 2 to 3 days. The cells were stimulated weekly with irradiated peptide-pulsed autologous PHA blasts, then CD3^+CD8^+ cells were purified with immunomagnetic beads (Miltenyi Biotec).
IFN-γ secretion of CTLs in response to target cells was detected using ELISpot assay. Briefly, effector cells were incubated with target cells in plates coated with anti-IFNγ antibody (1-D1K; Mabtech Inc., Cincinnati, OH). After incubation for 20 hours, biotinylated antibody specific for IFN γ (7-B6-1; Mabtech) was added for 2 hours at room temperature and then streptavidin-alkaline phosphatase (Mabtech) was added for 1 hour. To develop spots, nitroblue tetrazolium and 5-bromo-4-chloro-3-indolyl phosphate (Biorad) were added and the color development was stopped by rinsing with distilled water. The resulting spots were counted using a CTL-ImmunoSpot® analyzer (Cellular Technology Ltd., Shaker Heights, OH)

[10] = test system: CIR-A24 cells; test: 51Cr release cytotoxicity assay of PEPP2-specific CTLs against peptide-pulsed cells; type: cell-based
Description: The target cells were mixed with effector cells.

Compound | Binding MFI ratio [7] | Stability MFI ratio [8] | also measured
Nc1ncn([C@H]2C[C@H](O)[C@@H](CO)O2)c(=O)n1 [5-aza-2′-deoxycytidine] |  |  | PEPP2 gene expression after treatment ([1]; HL60 and PL21, 200 nM for 72 hours, RT-PCR / quantitative PCR): significantly up-regulated; PEPP2 protein expression after treatment ([1]; treated vs untreated cells, 200 nM for 72 hours, immunohistochemistry): increased; PEPP2 gene and protein expression after treatment [2]: did not change; Cytotoxicity of PEPP2-specific CTLs against treated cells compared with non-treated cells [3]: enhanced cytotoxicity; Recognition of treated normal PBMNCs by PEPP2-specific CTLs [4]: didn’t recognize; HLA-class I expression after treatment [5]: up-regulated; PD-L1 expression level after treatment ([5]; confirmed by quantitative PCR): slightly up-regulated; Viability of leukemia cells after treatment with the drug [6]: more than 90%
AFTPIQLQEL [PEPP2^140-149] | 1.363 | 0.851 | Induction of PEPP2-specific CTL [9]: could not induce PEPP2-specific CTL
CSQYMTSSL [PEPP2^7-15] | 1.103 | 1.041 | 
DMNAMVSL [PEPP2^27-35] | 0.936 | 0.831 | 
DYFWDHSHS [PEPP2^231-239] | 0.889 | 0.869 | 
EFGPFPFVI [PEPP2^271-279] | 1.153 | 1.201 | Induction of PEPP2-specific CTL [9]: could induce PEPP2-specific CTL; Lysis of peptide-pulsed C1R-A24 cells by PEPP2-specific CTLs ([10]; 4 hours, targets pulsed with 5 μg/mL peptide): could lyse C1R-A24 cells only when the target cells were pulsed; Dose dependence of recognition by CTLs ([10]; CIR-A24 pulsed with various concentrations of peptide, E/T ratio of 30): peptide dose-dependent
ERIFQREQF [PEPP2^150-158] | 0.747 | 0.690 | 
FTPLQLQEL [PEPP2^141-149] | 0.860 | 0.687 | 
FVIVPSFTF [PEPP2^277-285] | 1.181 | 0.928 | 
GGAGVPGHL [PEPP2^81-89] | 0.852 | 0.785 | 
KWRRHQRAL [PEPP2^188-196, PEPP2-derived candidate peptide …] | 0.772 | 0.714 | 
LQDMNAMVL [PEPP2^25-33] | 0.768 | 0.761 | 
LQLQELERI [PEPP2^144-152] | 0.695 | 0.738 | 
MPPFPPPSL [PEPP2^246-254] | 0.985 | 0.914 | 
PFPPPSLPL [PEPP2^248-256] | 1.069 | 0.926 | 
QCSQYMTSL [PEPP2^6-14] | 0.724 | 0.614 | 
QGTAAGEKL [PEPP2^52-60] | 0.820 | 0.938 | 
QLQELERIF [PEPP2^145-153] | 0.767 | 1.071 | 
QYMTSLLSPA [PEPP2^9-18] | 1.354 | 0.865 | 
QYSRPQGAV [PEPP2^117-125] | 0.882 | 0.977 | 
RALMARNML [PEPP2^194-202] | 0.954 | 0.599 | 
RPQGAVGGL [PEPP2^120-128] | 0.746 | 0.754 | 
SLPLPLMLL [PEPP2^253-261] | 1.277 | 1.103 | Induction of PEPP2-specific CTL [9]: could not induce PEPP2-specific CTL
TYGPVFMCL [EBV, reference compound] | 1.204 | 1.320 | 
VHAFTPLQL [PEPP2^138-146] | 0.992 | 0.748 | 
